Here are results for two compounds from paper PMC2915928 (Bioorganic & medicinal chemistry, 2009).

Series [1] concerns the target T1, μ-opioid receptor (Mus musculus, UniProt P42866). Kind of series: biochemical. The conditions noted are these: read-out: μ Emax, stimulation of [35S]GTPγS binding. In general terms: GTPγS resists hydrolysis and so accumulates on activated G proteins.
Series [2] deals with T1, μ-opioid receptor. Kind of series: biochemical. The conditions noted are these: read-out: μ Emax, inhibition of basal [35S]GTPγS binding.
Series [3] deals with T2, nociceptin (NOP) receptor (Homo sapiens, UniProt P41146). Kind of series: biochemical. The conditions noted are these: read-out: NOP Emax, stimulation of [35S]GTPγS binding.
The target in series [4] is T2, nociceptin (NOP) receptor. Kind of series: Inhibition of basal [35S]GTPγS binding. The series is classed as biochemical. The conditions noted are these: read-out: NOP Emax, inhibition of basal [35S]GTPγS binding.
Series [5] concerns the target T1, μ-opioid receptor.
The conditions of series [6]: human liver microsomes. A general note: Liver microsomes are vesicles of endoplasmic reticulum, rich in cytochrome P450 enzymes.

Molecules are shown by their SMILES. Read-outs that look alike come from different tables or passages of the source.

T1 sequence (P42866 whole entry): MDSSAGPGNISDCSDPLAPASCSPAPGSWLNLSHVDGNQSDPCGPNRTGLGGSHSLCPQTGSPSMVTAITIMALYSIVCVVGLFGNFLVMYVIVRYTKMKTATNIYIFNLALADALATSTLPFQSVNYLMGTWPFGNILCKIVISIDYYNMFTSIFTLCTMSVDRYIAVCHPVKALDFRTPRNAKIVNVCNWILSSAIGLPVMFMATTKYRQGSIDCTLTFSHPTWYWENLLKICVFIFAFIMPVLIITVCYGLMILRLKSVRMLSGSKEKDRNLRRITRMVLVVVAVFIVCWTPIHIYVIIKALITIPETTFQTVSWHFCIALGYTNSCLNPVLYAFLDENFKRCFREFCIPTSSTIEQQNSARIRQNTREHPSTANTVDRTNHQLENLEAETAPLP
T2 sequence (P41146 whole entry): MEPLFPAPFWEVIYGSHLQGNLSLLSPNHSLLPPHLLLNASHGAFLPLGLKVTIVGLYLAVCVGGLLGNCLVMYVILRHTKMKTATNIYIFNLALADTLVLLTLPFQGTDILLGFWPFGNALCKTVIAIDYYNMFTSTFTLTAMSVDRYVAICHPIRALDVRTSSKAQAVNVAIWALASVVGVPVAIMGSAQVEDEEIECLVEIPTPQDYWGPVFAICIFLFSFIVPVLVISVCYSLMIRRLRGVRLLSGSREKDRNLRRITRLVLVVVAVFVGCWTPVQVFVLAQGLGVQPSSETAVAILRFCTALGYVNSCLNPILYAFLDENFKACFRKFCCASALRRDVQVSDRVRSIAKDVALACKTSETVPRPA

Take `O=C(N[C@@H]1CC[C@@]2(O)[C@H]3Cc4ccc(O)c5c4[C@@]2(CCN3CC2CC2)[C@H]1O5)c1ccc(Cl)c(Cl)c1.O=C(O)C(=O)O` [Compound 9]: the Emax (as a rule, the greatest response seen or fitted, relative to the assay's reference) on μ-opioid receptor [1] was 80 to 85%; at μ-opioid receptor [2], 0%; in series [3], 0%; in series [4] it was 87 ± 6.9%. In addition, the “μ Emax, stimulation of [35S]GTPγS binding” value on μ-opioid receptor [5] was found to be 85 ± 7.4%.

Regarding `O=C(N[C@@H]1CC[C@@]2(O)[C@H]3Cc4ccc(O)c5c4[C@@]2(CCN3CC2CC2)[C@H]1O5)c1ccc(Br)cc1.O=C(O)C(=O)O` [Compound 6, 17-Cyclopropylmethyl-3,14β-dihydroxy-4,5α-epoxy-6β-[(4′-bromo)benzamido] morphinan], the “Change of N-oxide formation rate upon going from pH 7.4 to pH 10” value in series [6] is on record as “doubled”.
